Results: patent US20260364098A1, “HETEROARYL COMPOUNDS AS ENDOCANNABINOID SYSTEM MODULATORS AND USES THEREOF” (Northeastern University, priority 2023, published 2026)
Like-named read-outs stand apart in the source and are kept apart here.

Columns and labels:
[1] = target: T1, human MGL (hMGL) (Homo sapiens, UniProt Q99685); test: Fluorescent assay for human MGL inhibition; assay type: biochemical; settings: for hMGL inhibition: at concentrations up to 10 μM, known commercial ligands
T1 construct: made in house; host or cells: E. coli (lysate)
T1 sequence (Q99685 1-303): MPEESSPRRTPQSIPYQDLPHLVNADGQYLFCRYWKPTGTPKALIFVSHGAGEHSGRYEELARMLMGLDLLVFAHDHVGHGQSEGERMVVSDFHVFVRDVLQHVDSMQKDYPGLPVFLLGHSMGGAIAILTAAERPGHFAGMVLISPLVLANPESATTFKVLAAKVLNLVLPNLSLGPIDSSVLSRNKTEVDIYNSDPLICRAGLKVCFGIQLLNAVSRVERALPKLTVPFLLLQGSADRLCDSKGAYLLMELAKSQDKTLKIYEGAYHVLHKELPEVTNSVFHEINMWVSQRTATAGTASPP
Description: Fluorescent assay protocol for human MGL. Compound inhibition of hMGL activity was assessed by a fluorometric assay. The assay was carried out in a 96-well plate format and hMGL was monitored by the hydrolysis of the substrate […] or the substrate valeroyl-7-hydroxy-6-methoxy-4-methylcoumarin ester (VHMMCE) to form the fluorescent product, coumarin. Briefly, various concentrations of each compound were preincubated with hMGL (175 ng of total protein in E. coli lysate containing hMGL) for 15 minutes at room temperature. Upon the addition of the substrate, the reaction was incubated at […] for 120 minutes; fluorescence readings were taken every 15 minutes at 360 nm/460 nm (2excitation/λmission) using a Synergy HT Plate Reader (Bio-Tek, Winooski, Vt.). Under the incubation conditions, negligible substrate hydrolysis was observed. External standards were used to convert relative fluorescence units to the amount of 4-methylcoumarin formed. hMGL assays were performed in triplicate for each inhibitor concentration, and IC50 values were determined using Prizm software (FIGS. 1A-1G).

[2] = target: T2, hCB1 receptors (Homo sapiens, UniProt P21554); test: CB1 cAMP assay (inhibition of forskolin-stimulated cAMP accumulation); assay type: cell-based; settings: for EC50: EC50 of 2-AG + Compound (1 μM), 2-AG in presence of 1 μM compound, forskolin 2 μM, HEK293 and/or CHO hCB1
T2 construct: expressed in transfected cells
T2 sequence (P21554 whole entry): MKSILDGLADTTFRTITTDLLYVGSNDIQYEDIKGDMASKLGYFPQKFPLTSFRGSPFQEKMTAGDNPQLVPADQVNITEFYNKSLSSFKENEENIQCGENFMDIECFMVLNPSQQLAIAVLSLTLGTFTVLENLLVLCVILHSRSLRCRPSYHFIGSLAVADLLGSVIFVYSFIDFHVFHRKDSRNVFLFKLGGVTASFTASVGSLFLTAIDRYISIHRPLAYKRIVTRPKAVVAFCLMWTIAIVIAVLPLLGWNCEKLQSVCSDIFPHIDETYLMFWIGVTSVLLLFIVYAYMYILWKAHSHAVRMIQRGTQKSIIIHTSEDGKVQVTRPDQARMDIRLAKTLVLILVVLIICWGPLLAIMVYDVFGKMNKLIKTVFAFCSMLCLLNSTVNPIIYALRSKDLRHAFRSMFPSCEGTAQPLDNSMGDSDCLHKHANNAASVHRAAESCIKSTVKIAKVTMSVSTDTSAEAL
Description: CB1 cAMP assays. Compounds are evaluated for their ability to modulate the actions of orthosteric ligands at CB1 receptor sites. HEK293 and/or CHO cells stably expressing hCB1 receptors were used for the studies. The CAMP assay was carried out using Perkin Elmer's Lance Ultra cAMP kit following the protocol as described in J Biomol Screen 1999, 4, (6), 303-308. The assays are carried out in a 384-well format using 1000-1500 cells/well. The cells are harvested with non-enzymatic cell dissociation reagent Versene, washed once with Hanks' Balanced Salt Solution (HBSS), and resuspended in the stimulation buffer. […] After 30 minutes of stimulation at room temperature, the Eu-CAMP tracer working solution (5 μL) and Ulight-anti-cAMP working solution (5 μL) are added to the plate and incubated at room temperature for 60 minutes. The data are collected via PerkinElmer Envision plate reader. The EC50 values are determined by nonlinear regression analysis using GraphPad Prism software (FIGS. 2A-2H).

[3] = Kinetic aqueous solubility by laser-based nephelometry; assay type: physicochemical; settings: PBS buffer pH 7.4, 120 min, room temperature; relative to ZCZ011
Description: Aqueous solubility assays. The kinetic aqueous solubility of the compounds is determined using laser-based nephelometry. Linear serial dilutions of each compound are prepared in PBS buffer (pH=7.4) from DMSO stock solution (10 mM) in a 384-well plate. The compound solutions are mixed and incubated for 120 minutes at room temperature, followed by approximating the precipitation points for each compound using light scattering (laser-based BMG Labtech NEPHELOstar PLUS microplate nephelometer). In some aspects, the final solutions may contain 0 mM, 55 mM, 135 mM, or 500 mM of mannitol.

[4] = target: human CB1 (hCB1) (Homo sapiens, UniProt P21554); test: Competition binding assay, [3H]CP55,940 displacement, hCB1 HEK293 membranes; settings: up to 100 nM; [3H]CP55,940 0.7 nM; 37 °C, 60 min
human CB1 (hCB1), sequence (P21554 whole entry): as above
Description: Cell membrane preparation. Fresh or frozen HEK293 cell pellets (2×10^8 cells expressing human CB1 (hCB1) or rat CB1 (rCB1)) were resuspended in 5 ml of TME [25 mM Tris, 5 mM MgCl2, 1 mM EDTA pH 7.4] supplemented with 0.5% protease inhibitor cocktail (Sigma, St Louis, MO, USA). Cells were lysed under nitrogen cavitation for 30 min at 1000 psi on ice, centrifuged at 1000 g for 10 min, and the supernatant was collected. The pellet was washed three times with 10 ml of TME containing protease inhibitors and the combined supernatant was centrifuged at 100,000 g for 45 min at 4 °C. The resultant membrane pellet was used immediately or stored at −80 °C. Protein concentration for the resulting membrane fraction was obtained using Bradford Assay.
Competition Binding Assay. Competition binding assays were performed in a 96-well format. Assays were carried out using [3H] CP55,940 and Tris binding buffer (50 mM Tris-HCl, 50 mM Tris-base, 0.1% BSA, pH 7.4), up to a total assay volume of 500 μL. The concentration of [^3H]CP55,940 used in our displacement assays was 0.7 nM. […] Radioactivity was quantified by liquid scintillation spectrometry. […] Ki values were determined by fitting the data to non-linear regression curve using Graph Pad Prism software.

[5] = hMGL in E. coli lysate, 15 min preincubation, AHMMCE or VHMMCE substrate, read-out: MGL inhibition IC50

Row | Structure (SMILES) | IC50 [1, 5] | EC50 [2] | also measured
1 | O=[N+]([O-])C[C@H](c1ccc(B(O)O)cc1)c1c(-c2ccccc2)[nH]c2ccccc12 (single isomer, unassigned) [Compound 2] | 0.271 µM | 0.0513 µM | 
2 | O=[N+]([O-])C[C@@H](c1ccc(B(O)O)cc1)c1c(-c2ccccc2)[nH]c2ccccc12 (single isomer, unassigned) [Compound 3] | 0.0588 µM | 0.0375 µM | allosteric modulation of 2-AG and CP-55,940 at CB1 ([2]; in words): positive allosteric modulator of both 2-AG and CP-55,940; increase of potency of 2-AG at CB1 ([2]; orthosteric ligand 2-AG, positive allosteric modulator): ~ 2 fold; increase of potency of CP-55,940 at CB1 ([2]; orthosteric ligand CP-55,940, positive allosteric modulator): ~ 2 fold
3 | O=[N+]([O-])CC(c1ccc(B(O)O)cc1)c1c(-c2ccccc2)[nH]c2ccccc12 (stereo not drawn) [Compound 1, (4-(2-nitro-1-(2-phenyl-1H-indol-3-yl)ethyl)phenyl)boronic acid] | 0.0635 µM | 0.102 µM | aqueous solubility compared to ZCZ011 [3]: > 100 fold; competition with CP-55,940 [4]: do not compete with CP-55,940
4 | O=[N+]([O-])CC(c1cccc(B(O)O)c1)c1c(-c2ccccc2)[nH]c2ccccc12 (stereo not drawn) [Compound 4, (3-(2-nitro-1-(2-phenyl-1H-indol-3-yl)ethyl)phenyl)boronic acid] | 0.979 µM | 0.0408 µM | competition with CP-55,940 [4]: do not compete with CP-55,940
5 | O=[N+]([O-])CC(c1ccccc1)c1c(-c2ccc(B(O)O)cc2)[nH]c2ccccc12 (stereo not drawn) [Compound 5, (4-(3-(2-nitro-1-phenylethyl)-1H-indol-2-yl)phenyl)boronic acid] |  | 0.057 µM | 
6 | O=[N+]([O-])CC(c1ccc(B(O)O)cc1)c1c(-c2ccc(N=C=S)cc2)[nH]c2ccccc12 (stereo not drawn) [Compound 6, (4-(1-(2-(4-isothiocyanatophenyl)-1H-indol-3-yl)-2-nitroethyl)phenyl)boronic acid] |  | 0.0572 µM | 
7 | O=[N+]([O-])CC(c1ccccc1)c1c(-c2ccccc2)[nH]c2cc(B(O)O)ccc12 (stereo not drawn) [Compound 8, (3-(2-nitro-1-phenylethyl)-2-phenyl-1H-indol-6-yl)boronic acid] | 0.0468 µM |  | 
8 | O=[N+]([O-])CC(c1ccccc1)c1c(-c2ccc(S(=O)(=O)F)cc2)[nH]c2ccccc12 (stereo not drawn) [Compound 9, 4-(3-(2-nitro-1-phenylethyl)-1H-indol-2-yl)benzenesulfonyl fluoride] |  |  | IC50 [1]: 0.0323 µM
9 | O=[N+]([O-])CC(c1ccc(N=C=S)cc1)c1c(-c2ccccc2)[nH]c2ccccc12 (stereo not drawn) [Compound 10, 3-(1-(4-isothiocyanatophenyl)-2-nitroethyl)-2-phenyl-1H-indole] | 1.16 µM |  | 
10 | O=[N+]([O-])CC(c1ccccc1)c1c(-c2ccccc2)[nH]c2ccccc12 (stereo not drawn) [GAT211, 3-(2-nitro-1-phenylethyl)-2-phenyl-1H-indole, reference compound] |  |  | hMGL inhibition [1]: did not show any hMGL inhibition at concentrations up to 10 μM
11 | Cc1ccc2c(C(C[N+](=O)[O-])c3cccs3)c(-c3ccccc3)[nH]c2c1 (stereo not drawn) [ZCZ011, 6-methyl-3-(2-nitro-1-(thiophen-2-yl)ethyl)-2-phenyl-1H-indole, reference compound] |  |  | hMGL inhibition [1]: did not show any hMGL inhibition at concentrations up to 10 μM
